Assay results reported in patent US10894412B2, “Ink jet recording apparatus” (Seiko Epson Corporation, priority 2018, dated 2021).

Key:
[1] = Octanol/water distribution coefficient (log P value, OECD Test Guideline 107); type: physicochemical
Source text: The octanol/water distribution coefficient is a value referred to as a log P value and refers to a value defined in OECD Test Guideline 107. As the log P value is larger, the hydrophobicity is higher. As the log P value is smaller, the hydrophilicity is higher.

[2] = Solubility of organic compound in the ink; type: physicochemical; conditions: in the ink of Comparative Example 4
Source text: Incidentally, values in the table are in mass percent. Pigment, dye, and dispersion resin in the table each show the amount of solid matter.

COC(=O)c1ccc(C(=O)OC)cc1 [dimethyl terephthalate]
octanol/water distribution coefficient [1]: 2.25 | solubility [2]: poor
